# Source: EP4640686A1, “DEGRADER FOR DEGRADING BRD PROTEIN AND PHARMACEUTICAL COMPOSITION CONTAINING SAME” (Innocure Therapeutics, Inc., priority 2022, dated 2024)
# Experiments:
# Format in all cases: cell-based
# [1] = tested on: SNU2972; test: Cancer cell antiproliferative activity / cell viability in SNU2972 cells (72 h treatment); conditions: read-out: BRD4 (IC50)
# Procedure: (§1) The human breast cancer cell line [MDA-MB-231] was cultured in RPMI medium with the addition of 10% fetal bovine serum, penicillin [100U/ml], and streptomycin [[…]]. The synthesized compounds were prepared with a 10 mM or 50 mM raw material solution dissolved in DMSO [dimethyl sulfoxide], and were diluted sequentially and treated. [RPMI2650] and [SNU2972] were cultivated under specific conditions.
# (§2) To observe cell growth inhibition, cells were dispensed in a concentration of 5,000 cells/well in a 96-well plate, and samples prepared at various concentrations were treated for 72 hours. The IC50 value (the concentration of the compound achieving 50% cytostaticism) is the average value of the results of three independent measurements.
# [2] = target: T1, BRD4 (Homo sapiens, UniProt O60885); test: BRD4 protein degradation by western blotting in MDA-MB-231 cells (24 h treatment); set-up: To evaluate the resolution of PROTAC for BRD4 expressed in cells; endogenous in cells; host or cells: MDA-MB-231
# [3] = target: T1, BRD4; test: BRD4 protein degradation by western blotting in RPMI2650 cells (24 h treatment); set-up: To evaluate the resolution of PROTAC for BRD4 expressed in cells; endogenous in cells; host or cells: RPMI2650; conditions: read-out: BR04 (DC50), RPMI2650
# Method in brief: (§3)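 Cells seeded at 5 X 10^5 cells/well and exposed to serially diluted compound for 24 hours. Western blot bands were quantified by densitometry, normalized to β-actin or GAPDH and expressed as % of 0.1% DMSO vehicle. DC50 is the concentration giving 50% loss of protein.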
# [4] = target: T2, BRD4-NUT (Homo sapiens, UniProt O60885+Q86Y26); test: BRD4-NUT protein degradation by western blotting in RPMI2650 cells (24 h treatment); conditions: read-out: BRD4-NUT (DC50), RPMI2650
# T2 construct: endogenous in cells; host or cells: RPMI2650
# Method in brief: as §3
# [5] = tested on: RPMI2650; test: Cancer cell antiproliferative activity / cell viability in RPMI2650 cells (72 h treatment); conditions: Homo sapiens, RPMI-2650, RPMI2650, read-out: BRD4 (IC50)
# Method in brief: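 RPMI2650 human cells were grown under specific culture conditions and seeded at 5,000 cells/well in 96-well plates. Test compounds, dissolved in DMSO as 10 mM or 50 mM stock solutions and serially diluted, were applied at various concentrations for 72 hours. IC50, the concentration giving 50% cytostasis, was averaged over three independent measurements.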
# [6] = tested on: MDA-MB-231; test: Cancer cell antiproliferative activity / cell viability in MDA-MB-231 cells (72 h treatment); conditions: Homo sapiens, read-out: BRD4 (IC50)
# Procedure: as §1, §2
SMILES,IC50 [1],DC50 [2],DC50 [3],DC50 [4],IC50 [5],IC50 [6]
"Cc1sc2c(c1C)C(c1ccc(Cl)cc1)=N[C@@H](CC(=O)N1CCC(CN3CCN(c4cc5c(=O)n(C6CCC(=O)NC6=O)ncc5cc4F)CC3)CC1)c1nnc(C)n1-2 (stereo partly drawn) [ICT-0000972, 3-(7-(4-((1-(2-((S)-4-(4-chlorophenyl)-2,3,9-trimethyl-6H-thieno[3,2-f][1,2,4]triazolo[4,3-a][1,4]diazepine-6-day)acetyl)piperidine-4-il)methyl)piperazine-1-yl)-6-fluoro-1-oxopthalazine-2(1H)-yl)piperidine-2,6-dione]",< 100 nM,< 100 nM,< 100 nM,< 100 nM,100 to 1000 nM,< 100 nM
"Cc1sc2c(c1C)C(c1ccc(Cl)cc1)=N[C@@H](CC(=O)N1CC(N3CCN(c4ccc5c(=O)n(C6CCC(=O)NC6=O)ncc5c4)CC3)C1)c1nnc(C)n1-2 (stereo partly drawn) [ICT-0000973, 3-(6-(4-(1-(2-((S)-4-(4-chlorophenyl)-2,3,9-trimethyl-6H-thieno[3,2-f][1,2,4]triazolo[4,3-a][1,4]diazepine-6-day)acetyl)azetidine-3-il)piperazine-1-yl)-1-oxopthalazine-2(1H)-yl)piperidine-2,6-dione]",100 to 1000 nM,< 100 nM,< 100 nM,< 100 nM,100 to 1000 nM,< 100 nM
"Cc1sc2c(c1C)C(c1ccc(Cl)cc1)=N[C@@H](CC(=O)N1CC(N3CCN(c4ccc5c(=O)n(C6CCC(=O)NC6=O)nc(C)c5c4)CC3)C1)c1nnc(C)n1-2 (stereo partly drawn) [ICT-0000974, 3-(6-(4-(1-(2-((S)-4-(4-chlorophenyl)-2,3,9-trimethyl-6H-thieno[3,2-f][1,2,4]triazolo[4,3-a][1,4]diazepine-6-yl)acetyl)azetidine-3-il)piperazine-1-yl)-4-methyl-1-oxopthalazine-2(1H)-yl)piperidine-2,6-dione]",< 100 nM,< 100 nM,< 100 nM,< 100 nM,< 100 nM,< 100 nM
"Cc1sc2c(c1C)C(c1ccc(Cl)cc1)=N[C@@H](CC(=O)N1CCC(CN3CCN(c4ccc5c(C)nn(C6CCC(=O)NC6=O)c(=O)c5c4)CC3)CC1)c1nnc(C)n1-2 (stereo partly drawn) [ICT-0000982, 3-(7-(4-((1-(2-((S)-4-(4-chlorophenyl)-2,3,9-trimethyl-6H-thieno[3,2-f][1,2,4]triazolo[4,3-a][1,4]diazepine-6-day)acetyl)piperidine-4-il)methyl)piperazine-1-yl)4-methyl-1-oxopthalazine-2(1H)-yl)piperidine-2,6-dione]",< 100 nM,< 100 nM,< 100 nM,< 100 nM,< 100 nM,< 100 nM
